The values below come from PubChem BioAssay (NCI).

Common to all, as to assay: inhibition of tumour cell growth, NCI panel, 48 h
The test system of assay [1] is IGROV1 ovarian.
The test system of assay [2] is SK-MEL-2 melanoma.
Assay [3] relates to NCI-H226 lung.
The test system of assay [4] is HT29 colon.
Assay [5] has as its system NCI-H460 lung.
The test system of assay [6] is BT-549 breast.
For assay [7], the system named is RXF 393 renal.
Assay [8] deals with TK-10 renal.
Assay [9] concerns MOLT-4 leukemia.
In assay [10] the test system is MDA-MB-435.

Each structure is given as a SMILES string.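 Each compound was tested at five concentrations against cells in 96-well plates for 48 hours. The concentration for 50% growth inhibition is given as GI50. TGI denotes the concentration required for complete inhibition of growth.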

On to `C[C@H]1[C@H](C)CC[C@]2(C(=O)O)CC[C@]3(C)C(=CC[C@@H]4[C@@]5(C)CC[C@H](OC(=O)/C=C\c6ccc(O)cc6)C(C)(C)[C@@H]5CC[C@]43C)[C@H]12`, for which the GI50 in assay [1] was 15.5 µM; in assay [2], 28.9 µM; in [3], 4.55 µM; in assay [4] it was 4.87 µM; in assay [5] it was 2.23 µM; in assay [6], 9.58 µM. Besides, the GI50 was 1.52 µM in assay [7], 1.15 µM in [8], 4.56 µM in [9] and 4.24 µM in assay [10]. Further, the TGI in [1] is above 100 µM; in assay [2] it was above 100 µM; in [3], 26.3 µM; in [4], 19.5 µM; in [5], 10.9 µM; in assay [6], 31.2 µM. The TGI in assay [7] came to 6.94 µM; in [8], 4.66 µM; in [9] it was 19.7 µM; in assay [10] it was 42.4 µM.
As to `Cn1cc(C2=C(c3cccc(NCC(O)CO)c3)C(=O)NC2=O)c2cc(Cl)ccc21` (configuration not stated), the GI50 in [1] was 5.62 µM; in assay [2] it was 3.58 µM; in assay [3], 3.34 µM; in [4] it was 2.78 µM; in assay [5], 5.45 µM; in [6], 3.82 µM. Further, the GI50 in assay [7] is 2.82 µM; in [8] it was 5.67 µM; in assay [9], 4.2 µM; in assay [10] it was 5.9 µM. Moreover, the TGI is 15.1 µM in assay [1]; 10 µM in assay [2]; 11.9 µM in assay [3]; 11.8 µM in [4]; above 25 µM in [5]; 9.3 µM in assay [6]. Besides, the TGI is 7.18 µM in [7], 16.8 µM in assay [8], 18 µM in assay [9] and above 20.6 µM in assay [10].
Turning to `O=C(O)C#Cc1ccc([N+](=O)[O-])cc1`, the TGI in [1], in [2], in assay [3], in assay [4], in [5] and in assay [6] was above 100 µM each time. Besides, the TGI in assay [7], in [8], in assay [9] and in assay [10] was above 100 µM throughout.
Take `COc1ccc(/C=C2\CCCC3=C2N=C2SC=NN2C3c2ccc(OC)c(OC)c2)cc1OC` (configuration not stated): the GI50 in assay [1] was 28.9 µM; in [2] it was 25.8 µM; in assay [3], 18.5 µM; in [4], 19.9 µM; in assay [5], 22.4 µM; in assay [6] it was 21.9 µM. Also, the GI50 in assay [7] was 4.91 µM; in assay [8], 21 µM; in [9], 21.4 µM; in assay [10], 3.51 µM. Also, the TGI is above 100 µM in [1]; above 100 µM in assay [2]; 89.2 µM in assay [3]; above 100 µM in [4]; above 100 µM in [5]; above 100 µM in assay [6]. Besides, the TGI is 24.3 µM in [7], 76.2 µM in [8], above 100 µM in assay [9] and 42.8 µM in [10].
Regarding `COc1ccc2c(c1)N(CCC1CCCCN1C)c1ccccc1S2` (configuration not stated), the TGI in [1] amounted to 26.5 µM; in assay [2], 29.1 µM; in [3], 47.8 µM; in [4] it was 18.9 µM; in assay [5], 21.5 µM; in assay [6] it was 30.4 µM. The TGI in assay [7] was found to be 21.8 µM; in assay [8], 28.1 µM; in assay [9], 17.2 µM; in assay [10] it was 20.6 µM.
`Nc1nn(C(=O)Nc2ccc(Cc3ccccc3)cc2)c2ccccc12`: the GI50 is 6.98 µM in assay [1]; 36.4 µM in assay [2]; 13.5 µM in assay [3]; 2.39 µM in assay [4]; 0.409 µM in [5]; 13.5 µM in assay [6]. The GI50 in assay [7] was 22.2 µM; in [8] it was 27.2 µM; in assay [9], 0.636 µM; in assay [10], 2.82 µM. Besides, the TGI in assay [1] is 48.8 µM; in [2] it was above 100 µM; in [3], 58.3 µM; in [4], 17.6 µM; in [5], 13 µM; in assay [6] it was 39.6 µM. Also, the TGI in assay [7] is 58.2 µM; in assay [8], above 100 µM; in assay [9], 20.4 µM; in assay [10] it was above 100 µM.
As to `COc1cc2c3c(n(CCCN4CCOCC4)c(=O)c2cc1OC)-c1cc2c(cc1C3=O)OCO2`, the GI50 is above 61 µM in assay [1]; above 100 µM in [2]; 4.6 µM in assay [3]; 5.62 µM in assay [4]; 0.277 µM in assay [5]; 12.6 µM in [6]. In addition, the GI50 in [8] was 34.6 µM; in assay [9], 0.0841 µM; in assay [10], 28 µM. Also, the TGI is above 100 µM in assay [1]; above 100 µM in assay [2]; above 81.8 µM in assay [3]; above 67 µM in assay [4]; above 100 µM in assay [5]; above 100 µM in [6]. Further, the TGI in assay [7] was above 66.6 µM; in assay [8], above 94.3 µM; in assay [9], 1.81 µM; in assay [10], above 84.4 µM.
For `CN(C)CCOc1cccc(NC2=C(Cl)C(=O)C(Nc3cccc(OCCN(C)C)c3)=C(Cl)C2=O)c1`, the GI50 in assay [1] is 0.235 µM; in assay [2], 1.11 µM; in assay [3], 1.81 µM; in assay [4] it was 0.258 µM; in assay [5], 1.57 µM; in assay [6], 1.72 µM. Besides, the GI50 in assay [7] is 0.358 µM; in [8], 0.234 µM; in [9], 0.255 µM; in assay [10], 0.666 µM. The TGI worked out at 0.663 µM in [1]; 2.61 µM in assay [2]; 3.93 µM in [3]; 0.666 µM in assay [4]; 3.27 µM in [5]; 3.12 µM in assay [6]. Also, the TGI stood at 1.21 µM in assay [7], 0.513 µM in assay [8], 0.844 µM in assay [9] and 1.9 µM in [10].
As to `Cn1c2ccccc2c(=S)c2cc(NC(=O)CCCCC(=O)Nc3ccc4c(c3)c(=S)c3ccccc3n4C)ccc21`, the TGI in assay [1], in assay [2], in [3], in assay [4], in assay [5] and in assay [6] was above 100 µM in each case. For the same compound, the TGI in [7], in assay [8], in [9] and in [10] was above 100 µM throughout.
With `COC1(C)Cc2c(c(C)c(O)c3c2C(=O)C=C(Cl)C3=O)O1` (configuration not stated), the TGI in assay [1] was above 100 µM; in assay [2], above 100 µM; in assay [3], above 100 µM; in [4], 67 µM; in [5] it was above 100 µM; in assay [6], above 100 µM. Moreover, the TGI in assay [7] was 31.8 µM; in assay [8] it was 45.6 µM; in assay [9], 46.2 µM; in assay [10], above 100 µM.
`CCCNNC(=O)c1ccc(CNC(=O)/C=C/c2ccccc2)cc1`: the GI50 was 0.185 µM in [1]; 0.199 µM in assay [2]; 0.314 µM in assay [3]; 0.12 µM in assay [4]; 0.286 µM in assay [5]; 1.43 µM in assay [6]. Moreover, the GI50 in [7] is 0.18 µM; in assay [8], 0.0343 µM; in assay [9], 0.106 µM; in assay [10], 0.2 µM. For the same compound, the TGI in [1] was 1.1 µM; in [3], 2.58 µM; in [4], above 100 µM; in [5], above 100 µM; in assay [6] it was above 100 µM; in [7] it was 0.501 µM. The TGI in assay [8] was 0.577 µM; in assay [9], above 100 µM.
On to `O=C1/C(=c2\c3ccccc3n3c(=O)c4ccccc4nc23)Nc2ccccc21`, for which the TGI in assay [1], in assay [2], in assay [3], in [4], in [5] and in [6] was above 100 µM throughout. The TGI was above 100 µM in assay [7], above 100 µM in [8], above 31.6 µM in assay [9] and 36.8 µM in [10].
With `C(#Cc1ccccc1C#Cc1ccccn1)c1ccc(OCCCCCCOc2ccc(C#Cc3ccccc3C#Cc3ccccn3)cc2)cc1`, the GI50 in assay [1] is 5.63 µM; in assay [2] it was 1.87 µM; in assay [3] it was 4.33 µM; in assay [4], 8.16 µM; in [5] it was 1.62 µM; in [6] it was 4.39 µM. The GI50 in assay [7] is 6.91 µM; in assay [8], 5.33 µM; in assay [9], 0.225 µM; in assay [10], 1.69 µM. The TGI in assay [1] was determined as 17.2 µM; in [2], 11.1 µM; in [3], 13.3 µM; in assay [4], 14.9 µM; in [5], 6.65 µM; in assay [6] it was 12.1 µM. Further, the TGI in assay [7] was 13.6 µM; in [8], 15.8 µM; in assay [9], 5.41 µM; in [10], 9.71 µM.
